{"source": "patent US8940798B2", "about": "“Compounds useful for treating and/or preventing disease-associated bone loss” (Centre National de al Recherche Scientifique (CNRS), priority 2011, dated 2015)", "key": {"[1]": {"tested_on": "osteoclasts (OCs)", "assay": "TRAP staining of OCs to ascertain absence of toxicity", "assay_type": "cell-based", "conditions": "25 μM C21 vs DMSO (not shown)", "text": "OCs were fixed and stained for DNA, actin or vinculin or TRAP as described (16,19).\nTo confirm the essential role of Rac1 activation by Dock5 in the resorption process, it was sought for a chemical inhibitor of Dock5 exchange activity active in cell cultures. The inventors therefore took advantage of a yeast-based assay that they have developed (BLANGY et al., Identification of TRIO-GEFD1 chemical inhibitors using the yeast exchange assay, 2006, Biol Cell 98(9):511-22 and BOUQUIER et al. A cell active chemical GEF inhibitor selectively targets the Trio/RhoG/Rac1 signaling pathway, 2009, Chem Biol 16(6):657-66.). They constructed a yeast strain where Rac1 activation by Dock5 DHR2 induces the expression of the his3 reporter gene (FIG. 5A), which leads to faster yeast growth in Histidine deprived medium (FIG. 5B). A library of 2,640 heterocyclic commercial chemical compounds as described previously was screened (BOUQUIER et al., see above) for molecules able to inhibit growth of Dock5 DHR2-expressing yeasts in Histidine deprived medium without affecting growth in Histidine complemented medium. C21: N-(3,5-dichlorophenyl)benzenesulfonamide was then identified (FIG. 5C). […] In parallel, control OCs grown in the presence of DMSO or 25 μM C21 were stained for TRAP to ascertain C21 was not toxic (not shown)."}, "[2]": {"tested_on": "osteoclasts (OCs)", "assay": "Bone resorption assay, CTx concentration in medium of OCs on bovine bone slices", "assay_type": "cell-based, mouse", "text": "FIGS. 5A-5H: Inhibition of bone resorption by an inhibitor of Rac1 activation by Dock5. (FIG. 5A) Principle of the yeast exchange assay used to identify inhibitors of Dock5 exchange activity. Wild type Rac1 is fused to LexA DNA binding domain (LexA) and its effector Kinectin (Kin) to GAL4 activation domain (GAD). Expression of Dock5-DHR2 activates Rac1, which binds to kinectin, leading to the expression of his3 and then yeast […] for histidine. Inhibitors of Dock5-DHR2 revert Rac1 activation. (FIG. 5B) Growth curves of yeasts expressing Rac1 and Kinectin with (open triangles) and without (dots) Dock5-DHR2, in medium complemented (plain lines) or not (dotted lines) with histidine. (FIG. 5C) Structure of N-(3,5-dichlorophenyl)benzensulfonamide (C21). (FIG. 5D) Western blots showing total and GTPbound Rac1 (upper panels) and GFP and GFP-fused Dock5-DHR2 in extracts of 293T cells treated for 1 hour with the indicated concentrations of C21 in the presence of 1% DMSO. […] (FIG. 5F) Number of OCs (OC) after a 24-hour incubation with the indicated concentrations of C21, expressed as a % of DMSO control (0 μM C21). […] Well image was reconstituted and resorbed areas were measured using MetaMorph 7.0 software (Molecular Devices). […] After 2 days, CTx concentrations were measured using Crosslap (IDS Nordic Bioscience). […]"}, "[3]": {"tested_on": "osteoclasts (OCs)", "assay": "Resorption of calcium-phosphate matrices by OCs", "assay_type": "cell-based, mouse", "conditions": "25 μM C21 (not shown)", "protocol": "BMMs were isolated from long bones of 4- to 8-week-old animals as described (16) and OCs obtained by culturing BMMs with RANKL (100 ng/ml) and M-CSF (10 ng/ml) (Peprotech) for 5 days. RAW264.7 cells were grown for 5 days with RANKL (50 ng/ml) to obtain OCs. For resorption, OCs were differentiated in multiwell chambers or on coverslips coated with calcium phosphate (Osteologic Biocoat, BD Bioscience) or in 96-well plates containing a bovine bone slice (IDS Nordic Bioscience). Mesenchymal stem cells (MSCs) were isolated from mouse bone marrow and grown as described (18).\nOCs in multiwell Osteologic Biocoat were fixed at day 7 of differentiation and calciumphosphate was stained with von Kossa as described (BRAZIER et al, 2009, see above). The entire well surface was imaged using a Zeiss AxioimagerZ1 microscope. Well image was reconstituted and resorbed areas were measured using MetaMorph 7.0 software (Molecular Devices). For bone resorption assays, OCs were derived from BMMs in 96-well plates containing bovine bone slices. At day 5 of differentiation, medium was changed with fresh medium. After 2 days, CTx concentrations were measured using Crosslap (IDS Nordic Bioscience). […]"}}}
{"compound": "O=S(=O)(Nc1cc(Cl)cc(Cl)c1)c1ccccc1", "note": "[C21, N-(3,5-dichlorophenyl)benzenesulfonamide]", "values": [{"measurement": "Toxicity to OCs by TRAP staining", "setting": "[1]", "value": "not toxic"}, {"measurement": "Bone resorption, CTx concentration in the culture medium of OCs", "setting": "[2]; 25 μM C21, OCs on bone", "value": "efficiently inhibits"}, {"measurement": "Bone resorption by OCs in vitro, CTx production per OC, dose response", "setting": "[2]; dose response experiment", "value": "efficiently inhibits bone resorption"}, {"measurement": "Resorption of calcium-phosphate matrices", "setting": "[3]", "value": "efficiently inhibits"}]}
